This is an account of results in patent US20040175763A1, “Crohn's disease antibody-binding peptide and method of examining crohn's disease” (priority 2001, published 2004).

One assay concerns Crohn's disease antibody. Briefly: Reaction inhibition test with one amino acid-substituted MAP peptides on CDP3 MAP plate (Example 6(2)). The conditions noted are these: inhibitor MAP peptide 100 μg/mL. The assay is classed as binding, human. The protocol: Referring to the amino acid sequence of CDP peptide, in order to determine the sequence necessary for the specific reactivity to Crohn's disease antibody, the following reaction inhibition test was performed using each of the one amino acid-substituted MAP peptides prepared as above as the reaction inhibitor.
More particularly, using the MAP plate prepared by immobilizing the MAP peptide of CDP3 (see Example 2(1)) as the antigen plate, the test was performed by 3 reaction steps. In the primary reaction, the Crohn's disease patient serum was diluted 100-fold with a sample diluent containing the one amino acid-substituted MAP peptide in a concentration of 100 μg/mL (0.1 M Tris-buffer containing 0.5 M sodium chloride, 1.5% casein, 2% normal goat serum and 0.2% Tween 20) and reacted at 25° C. for one hour. In the secondary reaction, 100 μL/well of the primary reaction mixture was added to the plate and reacted at 25° C. for one hour, after which the plate was washed 3 times. In the tertiary reaction, 100 μL/well of HRP-labeled anti-human IgG (Fc)-specific antibody diluted 5,000-fold in an enzyme-labeled antibody diluent (Tris buffer containing 0.14 M sodium chloride, 0.5% BAS, 5% normal goat serum and 0.05% Tween 20) was added to the plate, and reacted at 25° C. for 1 hour, followed by 3 rounds of washing. Detection was performed as in Example 2(1) to measure the reaction-inhibiting activity of the one amino acid-substituted MAP peptide.

Assay [1] has as its system Crohn's disease antibody (serum IgG). Briefly: ELISA using each branched multiple antigenic peptide (MAP peptide) as the antigen. The conditions noted are these: for Positive rate Ulcerative colitis patients: 20 ulcerative colitis patient sera; for Positive rate Ulcerative colitis patients / Positive rate Healthy volunteers: cut-off mean OD+5SD of 48 healthy volunteer sera; for reaction with ulcerative colitis patient sera or healthy volunteer sera: 20 ulcerative colitis, 48 healthy volunteer serum samples; for Positive rate Healthy volunteers: 48 healthy volunteer sera. Type of assay: binding, human. The protocol:
Using each MAP peptide (the MAP peptides of CDP-1, CDP-2, CDP-3, and CDP-4; see FIG. 2) obtained in Example 1 as the antigen peptide, the reactivity to each serum sample (Crohn's disease patient serum, ulcerative colitis patient serum, and healthy volunteer serum) was evaluated by ELISA.
In the first place, each MAP peptide was immobilized on a 96-well microtiter plate. Thus, this immobilization was carried out in accordance with the protocol which comprises dissolving each MAP peptide in bicarbonate buffer (50 mM, pH 9.6) at a concentration of 1 μg/ml to prepare a MAP solution, adding the solution to the antigen plate, 100 μl per well, then leaving the plate sitting at 4° C. overnight, washing it, adding 300 μl of casein solution ((D)-PBS containing 0.1% casein and 1% Triton X-100), and leaving the plate sitting again at 4° C. overnight.
(i) Using the MAP plates carrying the respective MAP peptides immobilized, the reactivity of each MAP peptide to 20 Crohn's disease patient serum samples, 20 ulcerative colitis patient serum samples and 48 healthy volunteer serum samples was verified by ELISA.
More particularly, a primary reaction was carried out by adding mixture containing 1 μl of the serum antibody and 100 μl of casein solution to each well of the MAP plate, and allowing the reaction to proceed at 37° C. for one hour. After completion of the primary reaction, the plate was washed 4 times and a 20,000-fold dilution of HRP-labeled anti-human IgG(Fc)-specific antibody in casein solution was added into the wells and incubated at 37° C. for one hour to carry out a secondary reaction. After completion of the secondary reaction, the plate was washed 4 times and a color development reaction was carried out. For detection, 100 μl of TMB solution was added to the plate and reacted at room temperature for 10 minutes, at the end of which time the reaction was stopped by adding 100 μl of TMB stop solution (1N sulfuric acid). The absorbance at OD 450 nm was measured with a plate reader to investigate the reactivity to each MAP plate for each serum. […] It can also be seen in FIG. 3 that the reactivity of each MAP peptide to Crohn's disease patient serum varied among different kinds of MAP peptides without consistency.
(ii) Then, using a large number of serum samples (96 Crohn's disease patient serum samples, 20 ulcerative colitis patient serum samples, and 48 healthy volunteer serum samples), the reactivity of the above MAP peptides (the MAP peptides of CDP-1, CDP-2, CDP-3, and CDP-4) was investigated by the same method as in (i) to evaluate the specificity of the respective peptides to Crohn's disease patient sera.
On the technique in general: An ELISA detects its analyte on a solid surface through an enzyme-linked reagent.

For “A A G E L R Q S D G Q Y Q M (AAGELRQSDGQYQM) [CDP3-2]”, in the assay with Crohn's disease antibody, the “reaction-inhibiting activity, Patient serum sample No. 2” value is recorded as “+++ (+++: reaction-inhibiting activity = 70%)”; the “reaction-inhibiting activity, Patient serum sample No. 7” value was “+++ (+++: reaction-inhibiting activity = 70%)”; the “reaction-inhibiting activity, Patient serum sample No. 8” value is recorded as “+++ (+++: reaction-inhibiting activity = 70%)”.
In the case of AEGELYRWLPPSSAGDPA [CDP-2], in assay [1], the “Positive rate Ulcerative colitis patients” value was 5% (1/20), the “reaction with ulcerative colitis patient sera or healthy volunteer sera” value was “did not appreciably react” and the “Positive rate Healthy volunteers” value is given as 2.1% (1/48).
Take “A E G E L R Q S D G Q Y A M (AEGELRQSDGQYAM) [CDP3-13]”: in the assay with Crohn's disease antibody, the “reaction-inhibiting activity, Patient serum sample No. 2” value is “+ (+: reaction-inhibiting activity between 30% and 50%)”; the “reaction-inhibiting activity, Patient serum sample No. 7” value is “+++ (+++: reaction-inhibiting activity = 70%)”; the “reaction-inhibiting activity, Patient serum sample No. 8” value is “++ (++: reaction-inhibiting activity between 50% and 70%)”.
“A E G E L R Q S D G Q A Q M (AEGELRQSDGQAQM) [CDP3-12]”: in the assay with Crohn's disease antibody, the “reaction-inhibiting activity, Patient serum sample No. 2” value is “+++ (+++: reaction-inhibiting activity = 70%)”; the “reaction-inhibiting activity, Patient serum sample No. 7” value is “+++ (+++: reaction-inhibiting activity = 70%)”; the “reaction-inhibiting activity, Patient serum sample No. 8” value is “+++ (+++: reaction-inhibiting activity = 70%)”.
Turning to “A E G E L R Q S D G Q Y Q A (AEGELRQSDGQYQA) [CDP3-14]”, in the assay with Crohn's disease antibody, the “reaction-inhibiting activity, Patient serum sample No. 2” value is reported as “+++ (+++: reaction-inhibiting activity = 70%)”; the “reaction-inhibiting activity, Patient serum sample No. 7” value is “+++ (+++: reaction-inhibiting activity = 70%)”; the “reaction-inhibiting activity, Patient serum sample No. 8” value is “+++ (+++: reaction-inhibiting activity = 70%)”.
As for “A E G E L A Q S D G Q Y Q M (AEGELAQSDGQYQM) [CDP3-6]”, in the assay on Crohn's disease antibody, the “reaction-inhibiting activity, Patient serum sample No. 2” value was “+++ (+++: reaction-inhibiting activity = 70%)”; the “reaction-inhibiting activity, Patient serum sample No. 7” value is “+++ (+++: reaction-inhibiting activity = 70%)”; the “reaction-inhibiting activity, Patient serum sample No. 8” value is “+++ (+++: reaction-inhibiting activity = 70%)”.
In the case of AEGELGGIYQDLVSGDPA [CDP-4], in assay [1], the “Positive rate Ulcerative colitis patients” value is 5% (1/20), the “reaction with ulcerative colitis patient sera or healthy volunteer sera” value is on record as “did not appreciably react” and the “Positive rate Healthy volunteers” value is 4.2% (2/48).
Regarding AEGELRQSDGQYQMGDPA [CDP-3], in assay [1], the “Positive rate Ulcerative colitis patients” value was 0% (0/20), the “reaction with ulcerative colitis patient sera or healthy volunteer sera” value was “did not appreciably react” and the “Positive rate Healthy volunteers” value was 0% (0/48).
“A E G E L R Q S A G Q Y Q M (AEGELRQSAGQYQM) [CDP3-9]”: in the assay on Crohn's disease antibody, the “reaction-inhibiting activity, Patient serum sample No. 2” value is “− (−: reaction-inhibiting activity = 30%)”; the “reaction-inhibiting activity, Patient serum sample No. 7” value was “+ (+: reaction-inhibiting activity between 30% and 50%)”; the “reaction-inhibiting activity, Patient serum sample No. 8” value is “− (−: reaction-inhibiting activity = 30%)”.
Take “A E G E L R Q S D A Q Y Q M (AEGELRQSDAQYQM) [CDP3-10]”: in the assay on Crohn's disease antibody, the “reaction-inhibiting activity, Patient serum sample No. 2” value is “+ (+: reaction-inhibiting activity between 30% and 50%)”; the “reaction-inhibiting activity, Patient serum sample No. 7” value was “+++ (+++: reaction-inhibiting activity = 70%)”; the “reaction-inhibiting activity, Patient serum sample No. 8” value is given as “+++ (+++: reaction-inhibiting activity = 70%)”.
Consider “A E G E L R Q S D G A Y Q M (AEGELRQSDGAYQM) [CDP3-11]”, for which, in the assay on Crohn's disease antibody, the “reaction-inhibiting activity, Patient serum sample No. 2” value was “− (−: reaction-inhibiting activity = 30%)”; the “reaction-inhibiting activity, Patient serum sample No. 7” value is “+ (+: reaction-inhibiting activity between 30% and 50%)”; the “reaction-inhibiting activity, Patient serum sample No. 8” value was “− (−: reaction-inhibiting activity = 30%)”.
As for “A E G E A R Q S D G Q Y Q M (AEGEARQSDGQYQM) [CDP3-5]”, in the assay with Crohn's disease antibody, the “reaction-inhibiting activity, Patient serum sample No. 2” value is “+++ (+++: reaction-inhibiting activity = 70%)”; the “reaction-inhibiting activity, Patient serum sample No. 7” value was “+++ (+++: reaction-inhibiting activity = 70%)”; the “reaction-inhibiting activity, Patient serum sample No. 8” value was “+++ (+++: reaction-inhibiting activity = 70%)”.
As for “S E G E L R Q S D G Q Y Q M (SEGELRQSDGQYQM) [CPP3-1]”, in the assay on Crohn's disease antibody, the “reaction-inhibiting activity, Patient serum sample No. 2” value is reported as “+++ (+++: reaction-inhibiting activity = 70%)”; the “reaction-inhibiting activity, Patient serum sample No. 7” value is on record as “+++ (+++: reaction-inhibiting activity = 70%)”; the “reaction-inhibiting activity, Patient serum sample No. 8” value is listed as “+++ (+++: reaction-inhibiting activity = 70%)”.
As to “A E G E L R Q A D G Q Y Q M (AEGELRQADGQYQM) [CDP3-8]”, in the assay on Crohn's disease antibody, the “reaction-inhibiting activity, Patient serum sample No. 2” value was “+++ (+++: reaction-inhibiting activity = 70%)”; the “reaction-inhibiting activity, Patient serum sample No. 7” value is on record as “+++ (+++: reaction-inhibiting activity = 70%)”; the “reaction-inhibiting activity, Patient serum sample No. 8” value is on record as “+++ (+++: reaction-inhibiting activity = 70%)”.
On to AEGELGLLAQQMDYADPA [CDP-1], for which, in assay [1], the “Positive rate Ulcerative colitis patients” value is 0% (0/20), the “reaction with ulcerative colitis patient sera or healthy volunteer sera” value is reported as “did not appreciably react” and the “Positive rate Healthy volunteers” value was 4.2% (2/48).
“A E G E L R A S D G Q Y Q M (AEGELRASDGQYQM) [CDP3-7]”: in the assay with Crohn's disease antibody, the “reaction-inhibiting activity, Patient serum sample No. 2” value is “− (−: reaction-inhibiting activity = 30%)”; the “reaction-inhibiting activity, Patient serum sample No. 7” value was “− (−: reaction-inhibiting activity = 30%)”; the “reaction-inhibiting activity, Patient serum sample No. 8” value is given as “− (−: reaction-inhibiting activity = 30%)”.
Turning to “A E G A L R Q S D G Q Y Q M (AEGALRQSDGQYQM) [CDP3-4]”, in the assay with Crohn's disease antibody, the “reaction-inhibiting activity, Patient serum sample No. 2” value is given as “+++ (+++: reaction-inhibiting activity = 70%)”; the “reaction-inhibiting activity, Patient serum sample No. 7” value is reported as “+++ (+++: reaction-inhibiting activity = 70%)”; the “reaction-inhibiting activity, Patient serum sample No. 8” value is given as “+++ (+++: reaction-inhibiting activity = 70%)”.
For the substance “A E A E L R Q S D G Q Y Q M (AEAELRQSDGQYQM) [CDP3-3]”, in the assay with Crohn's disease antibody, the “reaction-inhibiting activity, Patient serum sample No. 2” value is reported as “+++ (+++: reaction-inhibiting activity = 70%)”; the “reaction-inhibiting activity, Patient serum sample No. 7” value is recorded as “+++ (+++: reaction-inhibiting activity = 70%)”; the “reaction-inhibiting activity, Patient serum sample No. 8” value is “+++ (+++: reaction-inhibiting activity = 70%)”.
